Data taken from PMC4411097, “Pachymic Acid Inhibits Growth and Induces Apoptosis of Pancreatic Cancer In Vitro and In Vivo by Targeting ER Stress” (PLoS ONE, 2015).

Experiments:
[1] = system: MIA PaCa-2 tumor xenograft; test: Human pancreatic tumor xenograft experiment; format: in vivo, female nude mice; details: day 34; for Average tumor volume: control approximately 448 mm^3
Method: Animal experiments were conducted strictly in accordance with the protocol approved by the Animal Research Committee at the Methodist Hospital (protocol no. 2011–07). MIA PaCa-2 cells (3x10^6) in 100 μl DPBS were implanted subcutaneously in the right flank on the ventral side of the 6 weeks old female nude mice (Harlan, Indianapolis, IN, USA). When tumors became palpable after 1–3 weeks (40–60 mm^3), animals were randomly assigned into three groups (n = 15) and received intraperitoneal (i.p.) injection 3 times per week of vehicle or PA (25 mg kg^-1 and 50 mg kg^-1) of body weight for additional 5 weeks. Tumor sizes were measured 3 times per week with microcalipers and the tumor volumes were calculated with the standard formula: tumor volume (mm^3) = L x W^2 x 0.5, where L is the length and W is the width of the tumor. At the end of the experiment (Day 35), the mice were euthanized by CO2 inhalation. The tumors were harvested and fixed in 10% neutral-buffered formalin at 4°C for 24 h or snap frozen and stored separately in liquid nitrogen.

[2] = system: HSPA6 and CHOP in MIA PaCa-2 tumor tissues; test: Quantitative RT-PCR of tumor tissues; format: in vivo, female nude mice; details: 25 mg kg^-1, vs controls
Method: The quantitative real-time polymerase chain reaction (qRT-PCR) was performed using ABI PRISM 7900HT Fast Real-Time PCR System (Applied Biosystems, Foster City, CA) according to the manufacturer's instructions. Total RNA was isolated from tumors with RNeasy Mini Kit (Qiagen, Valencia, CA). RNA quality was monitored and quantified using the Qubit 2.0 Fluorometer (Invitrogen, Carlsbad, CA). The RNA samples were reverse transcribed into cDNA using High Capacity cDNA Reverse Transcription Kit (Applied Biosystems, Foster City, CA). The cDNA (100 ng per sample) was subjected to qPCR analysis in triplicate. Analysis of the relative quantity gene expression (RQ) of HSPA6 and CHOP was normalized by ACTB expression and was performed using the 2^-ΔΔCt method.

[3] = system: MIA PaCa-2 cells; test: Apoptosis, Cell Death Detection ELISA (cytoplasmic histone-associated DNA fragments); format: cell-based, human; details: MIA PaCa-2, PA 0–30 μM, 24 h, relative to vehicle-treated cells (=1)
Method: (§1) Apoptosis induction in PA-treated cells was assessed by quantitation of cytoplasmic histone-associated DNA fragments and western blotting for PARP cleavage (c-PARP). The Cell Death Detection ELISA^PLUS Kit (Roche, Indianapolis, IN) was used to detect the amount of cytoplasmic histone-associated DNA fragments according to the manufacturer’s instructions and expressed relative to vehicle-treated cells (set equal to 1).

[4] = system: PANC-1 cells; test: as above; format: cell-based, human; details: PANC-1, PA 0–30 μM, 24 h, relative to vehicle-treated cells (=1)
Method: as §1

[5] = system: ATF4 and CHOP in MIA PaCa-2 tumor tissues; test: Western blot of tumor tissues; format: in vivo, female nude mice; details: 25 mg kg^-1, vs controls
Method: PANC-1, MIA PaCa-2 cells were treated with PA (0–30 μM) for 10 min, 30 min or 24 h, respectively. Whole protein extracts isolated from cells and tumor tissues were prepared and western blot analysis with anti-cleaved PARP, anti-XBP-1s, anti-ATF6, anti-ATF4, anti-Hsp70, anti-CHOP, anti-phospho-eIF2α or anti-eIF2α antibodies were performed as previously described. Western blots were quantified with HP-Scanjet 550c and analyzed by UN-SCAN-IT software (Silk Scientific, Orem, UT). Three independent experiments were done for all the immunoblot studies and quantitative data composed of all the experiments with statistical analysis were added below the representative blot image.

[6] = Toxicology studies in vivo; parameters: species or system female nude mice; details: for ALP: mean ± SD (n = 10–13), control 60 ± 19; for Albumin: control 1.5 ± 0.2; for AST: control 625 ± 367
Method: Toxicity of PA was evaluated in the 6 weeks old female nude mice (Harlan, Indianapolis, IN). The mice were acclimatized for 1 week and treated with PA (0, 25 or 50 mg kg^-1 of body weight, n = 15 per group) by i.p. 3 times per week for additional 5 weeks. The body weight was evaluated 3 times per week. At the end of the experiment, animals were euthanized by CO2 inhalation. Blood was collected and a gross pathology examination performed. Liver, spleen, kidney, lung and heart were harvested, fixed in 10% neutral-buffered formalin at 4°C for 24 h followed tissue processing overnight and then embedded in paraffin. Five-micrometer sections were stained with H&E. The levels of alkaline phosphatase (ALP), alanine aminotransferase (ALT), aspartate aminotransferase (AST), albumin and total protein were determined at the IU Health Pathology Laboratory (Indianapolis, IN).

[7] = 25 mg kg^-1 i.p. 3 times per week
[8] = 50 mg kg^-1 i.p. 3 times per week

For `C=C(CC[C@@H](C(=O)O)[C@H]1[C@H](O)C[C@@]2(C)C3=C(CC[C@]12C)[C@@]1(C)CC[C@H](OC(C)=O)C(C)(C)[C@@H]1CC3)C(C)C` [PA, Pachymic acid], the “Inhibition of tumor volume vs control” value [1, 7] was about 75%, the Average tumor volume [1, 7] was “about 112 mm^3” and the “Inhibition of tumor volume vs control” value [1, 8] was about 80%. The Average tumor volume [1, 8] was about 89 mm^3, the “Significant increase of HSPA6 and CHOP/GADD153 mRNA in tumors” value [2] was “not observed” and the “PA-induced apoptosis vs control” value [3] was about 8 fold. For the same compound, the “PA-induced apoptosis vs control” value [4] was about 19 fold, the “Expression of ATF4 and CHOP proteins in tumors” value [5] was “significant increase” and the “Liver enzyme profiles (ALP, ALT, AST, albumin, total protein)” value ([6]; 25 mg kg^-1) was “not markedly altered”. The “Organ pathology by H&E (liver, kidney, spleen, lung, heart)” value ([6]; 25 mg kg^-1) was “did not demonstrate any abnormalities”, the ALP ([6]; 25 mg kg^-1, serum) was 62 ± 9 IU L^-1 and the Albumin ([6]; 25 mg kg^-1, serum, mean ± SD) was 1.6 ± 0.1 g/dL. It also gave a T Protein ([6]; 25 mg kg^-1, serum, mean ± SD, control 4.1 ± 0.5) of 4.5 ± 0.2 g/dL, an ALT ([6]; 25 mg kg^-1, serum, mean ± SD, control 123 ± 88) of 194 ± 193 IU L^-1 and an AST ([6]; 25 mg kg^-1, serum, mean ± SD) of 531 ± 296 IU L^-1. The Clinical signs ([6]; 50 mg kg^-1) was “several signs of discomfort and impaired movement”, the “Organ pathology by H&E (liver, kidney, spleen, lung, heart)” value ([6]; 50 mg kg^-1) was “obvious pathological changes in liver, kidney and spleen tissues” and the ALP ([6]; 50 mg kg^-1, serum) was 59 ± 11 IU L^-1. For the same compound, the Albumin ([6]; 50 mg kg^-1, serum, mean ± SD) was 1.6 ± 0.1 g/dL, the AST ([6]; 50 mg kg^-1, serum, mean ± SD) was 1431 ± 997 IU L^-1 and the “Body weight, treatment groups vs control” value ([6]; 25 and 50 mg kg^-1 i.p. 3 times per week, 5 weeks) was “no significant differences”.
